# From US9688664B2, “Modulators of fatty acid amide hydrolase” (JANSSEN PHARMACEUTICA NV, priority 2010, dated 2017)
# Entries after “also recorded” stand apart in the source; their conditions may differ. Where two headings read alike, the source gives them in different places.
# How the values were obtained:
# rat = assay: Primary Observation (Irwin) Test in the rat; type: in vivo; settings: for Hypothermia: at 15 to 60 min and at 180 min; for Decreased muscle tone (rats affected/tested): at 60 to 120 min
# Protocol: Primary Observation (Irwin) Test in the Rat
# The method, which detects the first toxic dose, the active dose-range and the main effects of a test substance on behavior and physiological function, follows that described by Irwin et al., Psychopharmacologia, 1968, 13, 222-257. […] All animals within a treatment group were observed simultaneously. Behavioral modifications, physiological and neurotoxicity symptoms, rectal temperature and pupil diameter were recorded according to a standardized observation grid derived from that of Irwin. The grid contains the following items: death, convulsions, tremor, Straub tail, altered activity, jumping, abnormal gait (rolling, tip-toe), motor uncoordination, altered abdominal muscle tone, loss of grasping, akinesia, catalepsy, loss of traction, loss of balance, fore-paw treading, writhes, piloerection, stereotypies (sniffing, chewing, head movements), head twitches, scratching, altered respiration, aggression, altered fear/startle, altered reactivity to touch, ptosis, exophthalmia, loss of righting reflex, loss of corneal reflex, analgesia, defecation/diarrhea, salivation, lacrimation, rectal temperature (hypothermia/hyperthermia) and pupil diameter (myosis/mydriasis). The test substances were evaluated at 2 doses (10 and 60 mg/kg), administered p.o. immediately before the test, and compared with a vehicle control group. Observations were performed 15, 30, 60, 120 and 180 minutes after administration of the test substances/vehicles and also 24 hours later.
# FAAH [1] = biological target: T1, FAAH (Homo sapiens (Human), UniProt O00519); settings: cited from earlier work
# rats [2] = settings: cited from earlier work
# rats [3] = settings: cited from earlier work; remark: listed apart in the source
# CYP2D6 = CYP2D6 (Homo sapiens (Human), UniProt P10635); assay: Drug-Drug Interaction (DDI) assay, CYP inhibition in human liver microsomes
# Protocol: Drug-Drug Interaction (DDI) Assay
# The assay was set up and executed using a Biomek FXp robotic liquid handling workstation (Beckman Coulter Corp., Fullerton, Calif.), integrated with a Cytomat shaking incubator set at 37° C. […] A batch of human liver microsomes from 50 donors, pooled and characterized by BD Gentest, (Cat #457111, lot 01220, 20 mg/mL in 250 mM sucrose) was used. Each substrate was incubated at a protein concentration of 0.1, 0.15 or 0.2 mg/mL in a total incubation volume of 0.16 mL. The incubates were prepared in 100 mM potassium phosphate buffer (pH 7.4) supplemented with 5 mM magnesium chloride and 1 mM EDTA. Quinidine was used as a positive control inhibitor for CYP2D6. Quinidine was prepared as a working solution in organic solvent (primarily methanol, with DMSO and acetonitrile as secondary solvents) and was spiked into the microsomal suspension to yield the desired concentration level. The solution was then serially diluted with additional microsomal suspension to yield eight concentration levels. Final organic content was less than 0.07%. […] The final organic content was 0.2%. Incubations were performed in triplicate for each probe substrate.
# The control inhibitor (quinidine) and marker substrate (dextromethorphan or bufuralol) were transferred to the incubation vessels (60 μL aliquots each). After a pre-incubation period at 37° C., the reactions were initiated by the addition of a 40 μL aliquot of NADPH regenerating system (BD Gentest). […] Incubation times were 12 minutes for both dextromethorphan and bufuralol. Reactions were terminated by the direct addition of acetonitrile (160 μL) to the incubation mix followed by transfer to a pooling plate containing additional acetonitrile (400 μL).
# The incubation reactions were pooled by equal test compound or control inhibitor concentration, transferred to a Phenomenex Strata™ Impact protein precipitation filter plate containing acetonitrile and internal standards (100 μL of a mixture of the following deuterated compounds ranging in concentration from 0.5 to 2.8 μM: hydroxybufuralol-d9, dextrorphan-d3). The resulting filtrate was evaporated to dryness under a nitrogen flow, then reconstituted in 250 μL mobile phase (1:1 methanol:water, containing 0.1% acetic acid). Samples and standards were analyzed on a Sciex API4000 triple quadrupole mass spectrometer. The data were acquired in Analyst 1.4.1 (Applied Biosystems/MDS Sciex). For IC50 assays, the area ratios of the metabolite and internal standard chromatographic peaks were transferred to SigmaPlot (version 8.0) and plotted on a semi-log scale (percent residual activity vs. inhibitor concentration) to determine the IC50 value.
# [4] = in vivo; cited from earlier work
# [5] = in vivo; cited from earlier work; remark: listed apart in the source
# rats [6] = settings: cited from earlier work; remark: listed apart in the source
# rats [7] = settings: rat; cited from earlier work
# CREAE mice = settings: cited from earlier work
# FAAH [8] = biological target: T1, FAAH; assay: Assay Method 1: human FAAH assay (3H-anandamide hydrolysis in cell homogenate); type: biochemical; settings: average of results
# Protocol: A. Transfection of Cells with Human FAAH
# (§1) A 10-cm tissue culture dish with a confluent monolayer of SK-N-MC cells was split 2 days (d) prior to transfection. Using sterile technique, the media was removed and the cells were detached from the dish by the addition of trypsin. One fifth of the cells were then placed onto a new 10-cm dish. Cells were grown in a 37° C. incubator with 5% CO2 in Minimal Essential Media Eagle with 10% Fetal Bovine Serum. After 2 d, cells were approximately 80% confluent. These cells were removed from the dish with trypsin and pelleted in a clinical centrifuge. The pellet was re-suspended in 400 μL complete media and transferred to an electroporation cuvette with a 0.4 cm gap between the electrodes. Supercoiled human FAAH cDNA (1 μg) was added to the cells and mixed. The voltage for the electroporation was set at 0.25 kV, and the capacitance was set at 960 μF. After electroporation, the cells were diluted into complete media (10 mL) and plated onto four 10-cm dishes. Because of the variability in the efficiency of electroporation, four different concentrations of cells were plated. The ratios used were 1:20, 1:10, and 1:5, with the remainder of the cells being added to the fourth dish. The cells were allowed to recover for 24 h before adding the selection media (complete media with 600 μg/mL G418). After 10 d, dishes were analyzed for surviving colonies of cells. […]
# rat FAAH = rat FAAH (Rattus norvegicus (Rat), UniProt P97612); assay: Assay Method 2: rat FAAH assay (3H-anandamide hydrolysis in cell homogenate); type: biochemical; settings: average of results
# Protocol: A. Transfection of Cells with Rat FAAH
# as §1, with “rat” for “human”
# [9] = read-out: 2D6 Bufuralol IC50, substrate bufuralol
# [10] = read-out: 2D6 Dextromethorphan IC50, substrate dextromethorphan
# Chain of CYP2D6 (P10635 whole entry): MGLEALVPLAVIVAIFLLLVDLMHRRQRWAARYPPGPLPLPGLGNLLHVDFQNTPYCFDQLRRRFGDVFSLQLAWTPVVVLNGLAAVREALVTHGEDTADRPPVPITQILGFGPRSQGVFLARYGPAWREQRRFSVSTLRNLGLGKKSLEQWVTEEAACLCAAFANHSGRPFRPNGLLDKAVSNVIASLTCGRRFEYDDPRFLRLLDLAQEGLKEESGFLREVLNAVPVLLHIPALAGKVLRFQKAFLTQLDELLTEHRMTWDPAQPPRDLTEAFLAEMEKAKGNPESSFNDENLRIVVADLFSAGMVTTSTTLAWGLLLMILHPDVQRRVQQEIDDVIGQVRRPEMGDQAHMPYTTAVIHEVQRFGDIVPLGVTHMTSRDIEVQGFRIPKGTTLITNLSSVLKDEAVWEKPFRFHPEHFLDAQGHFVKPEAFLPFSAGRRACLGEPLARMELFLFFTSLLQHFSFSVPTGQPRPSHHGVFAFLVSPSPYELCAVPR
# T1 sequence (O00519 whole entry): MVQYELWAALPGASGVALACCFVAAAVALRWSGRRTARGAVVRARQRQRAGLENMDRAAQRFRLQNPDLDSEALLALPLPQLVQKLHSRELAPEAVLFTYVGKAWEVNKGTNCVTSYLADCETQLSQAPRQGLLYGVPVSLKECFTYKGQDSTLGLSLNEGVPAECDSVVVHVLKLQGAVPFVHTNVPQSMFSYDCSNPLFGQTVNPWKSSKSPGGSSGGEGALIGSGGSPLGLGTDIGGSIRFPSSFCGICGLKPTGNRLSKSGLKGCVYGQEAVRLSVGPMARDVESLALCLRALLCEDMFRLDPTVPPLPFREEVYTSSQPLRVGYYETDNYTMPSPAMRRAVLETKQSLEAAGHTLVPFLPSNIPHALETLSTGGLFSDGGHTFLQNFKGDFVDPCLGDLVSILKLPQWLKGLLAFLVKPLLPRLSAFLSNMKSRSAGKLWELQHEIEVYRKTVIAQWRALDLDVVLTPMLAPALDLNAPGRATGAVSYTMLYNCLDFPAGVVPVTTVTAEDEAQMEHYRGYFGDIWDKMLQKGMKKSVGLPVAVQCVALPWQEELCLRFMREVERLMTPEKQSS
# Chain of rat FAAH (P97612 whole entry): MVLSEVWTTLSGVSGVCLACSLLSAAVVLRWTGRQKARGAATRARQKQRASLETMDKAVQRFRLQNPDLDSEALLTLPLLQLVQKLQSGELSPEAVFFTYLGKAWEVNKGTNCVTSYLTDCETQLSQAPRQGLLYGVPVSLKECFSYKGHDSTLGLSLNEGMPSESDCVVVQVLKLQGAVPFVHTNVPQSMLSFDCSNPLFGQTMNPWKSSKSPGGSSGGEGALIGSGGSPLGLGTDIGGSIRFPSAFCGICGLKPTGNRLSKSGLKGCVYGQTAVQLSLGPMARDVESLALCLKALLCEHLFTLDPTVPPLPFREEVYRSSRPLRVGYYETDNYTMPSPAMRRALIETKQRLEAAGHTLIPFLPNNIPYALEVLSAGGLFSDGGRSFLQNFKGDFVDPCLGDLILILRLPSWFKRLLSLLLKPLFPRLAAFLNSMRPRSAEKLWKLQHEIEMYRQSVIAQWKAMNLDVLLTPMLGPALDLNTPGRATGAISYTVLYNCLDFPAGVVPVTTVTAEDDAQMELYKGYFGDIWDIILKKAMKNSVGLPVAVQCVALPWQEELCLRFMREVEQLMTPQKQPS
compound,measurement,setting,value
Cl.O=C(Nc1cccnc1)N1CCN(Cc2ccc3c(c2)OC(F)(F)O3)CC1 [Comparator Compound HCl],Increased reactivity to touch (rats affected/tested),"rat; 10 mg/kg p.o., at 15 min",all 3 rats; also recorded: (3/3) at 15
same,"Sedative/depressant effects (sedation, motor signs and hypothermia)",rat; 60 mg/kg p.o.,presence of sedative/depressant effects
same,Sedation (rats affected/tested),"rat; 60 mg/kg p.o., 15 to 120 min",all 3 rats; also recorded: (3/3) 15 to 120 min
same,Hypothermia,rat; 60 mg/kg p.o.,induced hypothermia; also recorded: slight induction at 15
same,Decreased muscle tone (rats affected/tested),rat; 60 mg/kg p.o.,all 3 rats; also recorded: (3/3) at 60 to 120
same,Abnormal gait (rolling) (rats affected/tested),"rat; 60 mg/kg p.o., at 15 min",all 3 rats; also recorded: (3/3) at 15 min
O=C(CCCCCCc1ccccc1)c1ncc(-c2ccccn2)o1 [OL-135],FAAH inhibition,FAAH [1],potent inhibitor
same,"analgesic efficacy/activity, hot plate",rats [2],analgesic activity
same,"analgesic activity, tail immersion",rats [3],analgesic activity
Cl.O=C(Nc1cnccc1Cl)N1CCN(Cc2ccc3c(c2)OC(F)(F)O3)CC1,Increased reactivity to touch (rats affected/tested),"rat; 10 mg/kg p.o., at 180 min, hydrochloride",1 out of 4
same,"Sedative/depressant effects (sedation, motor signs and hypothermia)",rat; 60 mg/kg p.o.,not observed
same,Increased abdominal muscle tone (rats affected/tested),"rat; 60 mg/kg p.o., at 60 min",1 out of 4
same,Increased reactivity to touch (rats affected/tested),"rat; 60 mg/kg p.o., at 60 min",1 out of the 4
same,Increased reactivity to touch (rats affected/tested),"rat; 60 mg/kg p.o., at 180 min",1 out of the 4
same,General effects in the Irwin Test,rat; dose-range 10-60 mg/kg p.o.,weak and transient arousing effects in only one rat
same,Other signs,"rat; up to 24 hours after administration, 10-60 mg/kg p.o.",no other signs were observed
O=C(Nc1cccnc1)N1CCN(Cc2ccc3c(c2)OC(F)(F)O3)CC1 [Comparator Compound],IC50,CYP2D6; [9],3200 nM
same,IC50,CYP2D6; [10],2000 nM
same,Increased reactivity to touch (rats affected/tested),"rat; 10 mg/kg p.o., at 15 min",all rats tested
same,Sedation (rats affected/tested),"rat; 60 mg/kg p.o., 15 to 120 min",all rats tested
same,Hypothermia,rat; 60 mg/kg p.o.,induced hypothermia
same,Decreased muscle tone (rats affected/tested),rat; 60 mg/kg p.o.,all rats
same,Abnormal gait (rolling) (rats affected/tested),"rat; 60 mg/kg p.o., at 15 min",all rats tested
"O=C(Nc1ccccc1)N1CCN(c2nc(-c3ccccc3)ns2)CC1 [4-(3-Phenyl-[1,2,4]thiadiazol-5-yl)-piperazine-1-carboxylic acid phenylamide]",efficacy in neuropathic pain model,[4],efficacious
same,efficacy in acute burn injury pain model,[5],efficacious
NC(=O)c1cccc(-c2cccc(OC(=O)NC3CCCCC3)c2)c1 [URB-597],"analgesic efficacy/activity, hot plate",rats [2],analgesic efficacy
same,efficacy in model of anxiety,rats [6],efficacy
same,"analgesic efficacy, formalin test",rats [7],analgesic efficacy
CCCCCCCCCCCCCCCCS(=O)(=O)F [AM374],spasticity,CREAE mice,significantly reduce spasticity
O=C(Nc1cnccc1Cl)N1CCN(Cc2ccc3c(c2)OC(F)(F)O3)CC1 [Example 1],IC50,CYP2D6; [9],24000 nM
same,IC50,CYP2D6; [10],11000 nM
same,IC50,FAAH [8],75 nM
same,IC50,rat FAAH,320 nM
same,Increased reactivity to touch (rats affected/tested),"rat; 10 mg/kg p.o., at 180 min",(1/4) at
same,Abnormal gait (rats affected/tested),rat; 60 mg/kg p.o.,(0/4)
same,Hypothermia (rats affected/tested),rat; 60 mg/kg p.o.,(0/4)
same,Sedation (rats affected/tested),rat; 60 mg/kg p.o.,(0/4)
same,Increased abdominal muscle tone (rats affected/tested),"rat; 60 mg/kg p.o., at 60 min",(1/4) at 60 min
same,Increased reactivity to touch (rats affected/tested),"rat; 60 mg/kg p.o., at 60 min",(1/4) at 60 min
same,Increased reactivity to touch (rats affected/tested),"rat; 60 mg/kg p.o., at 180 min",(1/4) at 180 min
